Patent US7579432B2, “Cyclic peptides as G-protein-coupled receptor antagonists” (Promics Pty Limited, priority 2001, dated 2009)

Test system: antigen-induced arthritis
Test: Rat monoarticular antigen-induced arthritis
Assay type: in vivo
Experimental: Female Wistar rats (150-250 g) were obtained from the Central Animal Breeding House, University of Queensland. […] Each rat received a subcutaneous injection of this suspension (0.5 mL) on days 1 and 7. On day 12-28, rats were separated into separate cages, and body weight and food and water intake monitored daily. Rats received either ordinary tap water or drinking water containing AcF-[OPdChaWR] (1). […] Rats were euthanased on day 28, and whole blood collected into an Eppendorf tube and allowed to clot on ice. Blood samples were centrifuges (11,000 rpm×3 min) and serum collected and stored at −20° C. until analysis of serum cytokines using an ELISA. Each knee capsule was lavaged with 100 μL saline, and the total cell count determined using a haemocytometer. In addition, an aliquot of the knee joint lavage fluid was dropped onto a glass slide, and allowed to air dry. Once dry, cells were stained with a differential stain (Diff Quick) and a differential cell count was performed using a 40× dry lens microscope. The remaining lavage fluids from each joint were stored at −20° C. until later analysis of intra-articular cytokine levels using an ELISA. Each knee joint was removed and the skin was split with a scalpel blade to allow fixation. Knee samples were stored in 10% buffered formalin for≧10 d. Knees were then rinsed with distilled water and placed in a saturated solution of EDTA solution for 21 d for decalcification before being embedded in paraffin wax. Knee tissue samples were prepared using standard histological techniques as described above in Example 6 and stained using an heamotoxylin and eosin stain. Histological slides were analysed in a blinded fashion. […] In no samples was there evidence of significant bone erosion. Samples of serum and synovial fluid were thawed on the day of ELISA analysis for TNFα and IL-6 levels. Concentrations were determined from a standard curve, using an ELISA as described previously in Example 6.

CC(=O)N[C@@H](Cc1ccccc1)C(=O)N[C@H]1CCCNC(=O)[C@H](CCCNC(=N)N)NC(=O)[C@H](Cc2c[nH]c3ccccc23)NC(=O)[C@@H](CC2CCCCC2)NC(=O)[C@@H]2CCCN2C1=O [Compound 1, Ac-Phe-[Orn-Pro-dCha-Trp-Arg]]
inhibition: arthritic right knee joint swelling (given orally on Days −2 to +14) | right knee joint IL-6 levels in joint lavage (oral) | right knee joint TNF-α levels in joint lavage (oral)
